Experimental data published in PMC4279137 (Pharmaceutics, 2014).
Read-outs that look alike come from different tables or passages of the source. Values belong to the compound of their own block, whether it stands above or below them.

Experiments:
CYP2C19 [1] = target: T1, CYP2C19 (Homo sapiens, UniProt P33261); test: CYP2C19/CEC High Throughput Inhibitor Screening Kit; format: biochemical
T1 construct: purchased Becton Dickinson Biosciences, Heidelberg, Germany
Experimental: (§1) Inhibition studies were performed with the CYP2D6/AMMC, the CYP2C19/CEC, and the CYP3A4/BFC High Throughput Inhibitor Screening Kit (Becton Dickinson Biosciences, Heidelberg, Germany) according to the manufacturer’s instructions. The Screening Kits contain the respective recombinant CYP and fluorogenic substrates, which are blocked dyes yielding minimal fluorescence signal until cleaved by the enzyme. […] Eight concentrations (9 nM–20 µM) were tested and the experiment was conducted in triplicate.

BCRP = target: T2, BCRP (Homo sapiens, UniProt Q9UNQ0); parameters: method as in PMID 20222053; details: MDCKII-BCRP cells; read-out: IC50 BCRP inhibition, control compound; cited from earlier work
T2 construct: expressed in transfected cells; host or cells: MDCKII-BCRP (Madin-Darby canine kidney cells)
T2 sequence (Q9UNQ0 whole entry): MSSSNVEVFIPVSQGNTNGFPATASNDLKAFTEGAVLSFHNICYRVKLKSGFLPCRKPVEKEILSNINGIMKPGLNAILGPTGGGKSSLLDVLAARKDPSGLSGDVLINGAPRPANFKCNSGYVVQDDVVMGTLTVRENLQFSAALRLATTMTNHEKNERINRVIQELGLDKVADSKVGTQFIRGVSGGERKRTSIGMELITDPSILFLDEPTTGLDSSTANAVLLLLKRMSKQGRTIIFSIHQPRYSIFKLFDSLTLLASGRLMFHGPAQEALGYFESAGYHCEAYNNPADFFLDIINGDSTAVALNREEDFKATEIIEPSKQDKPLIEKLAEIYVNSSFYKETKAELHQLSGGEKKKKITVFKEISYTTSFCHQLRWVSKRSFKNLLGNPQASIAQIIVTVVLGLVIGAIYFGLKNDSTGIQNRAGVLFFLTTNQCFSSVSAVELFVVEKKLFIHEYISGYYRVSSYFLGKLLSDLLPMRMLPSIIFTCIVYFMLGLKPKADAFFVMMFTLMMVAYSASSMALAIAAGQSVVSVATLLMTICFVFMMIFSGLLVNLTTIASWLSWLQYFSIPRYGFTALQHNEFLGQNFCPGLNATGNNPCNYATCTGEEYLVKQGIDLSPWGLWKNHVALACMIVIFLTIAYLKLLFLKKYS

OATP1B1 [2] = target: T3, OATP1B1 (Homo sapiens, UniProt Q9Y6L6); test: OATP inhibition assay (8-FcA flow cytometry uptake assay) in HEK-OATP1B1 cells; format: cell-based; details: 8-fluorescein-cAMP uptake
T3 construct: expressed in transfected cells; host or cells: HEK293 (HEK-OATP1B1)
T3 sequence (Q9Y6L6 whole entry): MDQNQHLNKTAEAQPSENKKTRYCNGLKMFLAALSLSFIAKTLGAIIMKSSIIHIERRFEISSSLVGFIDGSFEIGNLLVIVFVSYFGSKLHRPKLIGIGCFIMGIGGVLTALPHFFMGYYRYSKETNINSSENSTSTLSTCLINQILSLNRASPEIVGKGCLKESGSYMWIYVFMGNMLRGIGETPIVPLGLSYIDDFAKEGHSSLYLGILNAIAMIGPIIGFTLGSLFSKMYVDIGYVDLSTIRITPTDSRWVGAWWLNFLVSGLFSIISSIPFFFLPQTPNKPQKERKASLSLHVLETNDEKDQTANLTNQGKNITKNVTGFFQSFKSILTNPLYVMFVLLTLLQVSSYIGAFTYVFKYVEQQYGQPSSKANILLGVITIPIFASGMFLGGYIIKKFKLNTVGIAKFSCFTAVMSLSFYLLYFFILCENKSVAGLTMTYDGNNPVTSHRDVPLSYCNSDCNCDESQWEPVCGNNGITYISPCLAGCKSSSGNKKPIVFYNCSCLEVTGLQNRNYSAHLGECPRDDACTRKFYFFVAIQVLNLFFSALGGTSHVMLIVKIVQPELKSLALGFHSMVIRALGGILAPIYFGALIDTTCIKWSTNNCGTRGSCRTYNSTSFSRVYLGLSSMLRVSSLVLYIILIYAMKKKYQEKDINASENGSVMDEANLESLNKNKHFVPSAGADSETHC
Experimental: (§2) For assessing human organic antion transporting polypeptides (OATPs = solute carriers of organic anions (SLCOs)) inhibition, the human embryonic kidney cell line HEK293 stably transfected with OATP1B1 (HEK-OATP1B1), OATP1B3 (HEK-OATP1B3), or the empty control vector (HEK293-VC G418) were used. Cells were cultured under standard cell culture conditions with DMEM supplemented with 10% FCS, 2 mM glutamine, 100 U/mL penicillin, 100 µg/mL streptomycin sulphate, and 800 µg/mL G418. Cells were kindly provided by Dr. D. Keppler (German Cancer Research Centre, Heidelberg, Germany).
(§3) Inhibition of OATP1B1 and OATP1B3 was analysed by flow cytometric uptake of the fluorescent 8-FcA as described previously using HEK-OATP1B1, OATP1B3, and HEK293-VC G418 (as a control). […] Subsequently, cells were washed once with 1 mL ice-cold incubation medium and resuspended in 500 µL incubation medium and kept on ice until flow cytometry. Intracellular fluorescence was analysed in a Becton Dickinson LSRII flow cytometer (Becton Dickinson, Heidelberg, Germany) with a solid state coherent sapphire blue laser and a 530 bandpass filter for 8-FcA.
(§4) In each sample 30,000 cells were counted. Cell debris was eliminated by gating the viable cells in the forward versus side scatter. […] Each experiment was performed at least in triplicate.

OATP1B3 [3] = target: T4, OATP1B3 (Homo sapiens, UniProt Q9NPD5); test: OATP inhibition assay (8-FcA flow cytometry uptake assay) in HEK-OATP1B3 cells; format: cell-based; details: 8-fluorescein-cAMP uptake
T4 construct: expressed in transfected cells; host or cells: HEK293 (HEK-OATP1B3)
T4 sequence (Q9NPD5 whole entry): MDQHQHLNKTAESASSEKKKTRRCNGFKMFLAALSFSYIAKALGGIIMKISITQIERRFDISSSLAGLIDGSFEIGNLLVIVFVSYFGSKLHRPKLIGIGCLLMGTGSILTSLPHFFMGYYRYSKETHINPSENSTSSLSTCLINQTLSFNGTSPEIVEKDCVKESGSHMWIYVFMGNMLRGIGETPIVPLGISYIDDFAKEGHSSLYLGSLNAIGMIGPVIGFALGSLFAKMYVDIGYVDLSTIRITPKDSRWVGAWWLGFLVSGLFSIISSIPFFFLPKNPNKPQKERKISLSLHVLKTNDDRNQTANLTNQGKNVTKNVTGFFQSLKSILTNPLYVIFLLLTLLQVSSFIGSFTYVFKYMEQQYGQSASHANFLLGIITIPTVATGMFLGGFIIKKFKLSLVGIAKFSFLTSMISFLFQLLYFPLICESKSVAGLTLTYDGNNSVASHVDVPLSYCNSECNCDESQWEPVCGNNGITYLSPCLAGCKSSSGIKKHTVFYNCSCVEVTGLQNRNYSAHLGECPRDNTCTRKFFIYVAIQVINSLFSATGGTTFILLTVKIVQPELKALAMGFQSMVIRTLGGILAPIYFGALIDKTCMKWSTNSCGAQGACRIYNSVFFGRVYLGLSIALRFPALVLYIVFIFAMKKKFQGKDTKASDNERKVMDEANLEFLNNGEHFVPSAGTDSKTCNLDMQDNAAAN
Experimental: as §2, §3, §4

CYP3A4 [4] = target: CYP3A4 (Homo sapiens, UniProt P08684); test: in vitro
Sequence of CYP3A4 (Homo sapiens, UniProt P08684) (P08684 whole entry): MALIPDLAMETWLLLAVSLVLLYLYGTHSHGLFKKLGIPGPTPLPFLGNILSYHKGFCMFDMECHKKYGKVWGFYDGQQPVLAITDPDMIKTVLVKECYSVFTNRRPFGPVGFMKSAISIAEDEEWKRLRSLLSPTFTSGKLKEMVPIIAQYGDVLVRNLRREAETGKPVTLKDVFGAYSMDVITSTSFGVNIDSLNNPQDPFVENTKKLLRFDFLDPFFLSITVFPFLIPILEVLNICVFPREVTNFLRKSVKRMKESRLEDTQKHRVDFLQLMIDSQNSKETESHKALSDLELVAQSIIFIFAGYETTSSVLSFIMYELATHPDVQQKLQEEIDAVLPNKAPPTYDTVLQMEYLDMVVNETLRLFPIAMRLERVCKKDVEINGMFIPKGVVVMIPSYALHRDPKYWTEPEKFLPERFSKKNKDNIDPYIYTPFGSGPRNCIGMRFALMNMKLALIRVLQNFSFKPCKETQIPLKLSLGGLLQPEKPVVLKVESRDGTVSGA
Experimental: as §1

CYP2D6 = target: T5, CYP2D6 (Homo sapiens, UniProt P10635); test: CYP2D6/AMMC High Throughput Inhibitor Screening Kit; format: biochemical; details: tested up to 20 µM
T5 construct: purchased Becton Dickinson Biosciences, Heidelberg, Germany
T5 sequence (P10635 whole entry): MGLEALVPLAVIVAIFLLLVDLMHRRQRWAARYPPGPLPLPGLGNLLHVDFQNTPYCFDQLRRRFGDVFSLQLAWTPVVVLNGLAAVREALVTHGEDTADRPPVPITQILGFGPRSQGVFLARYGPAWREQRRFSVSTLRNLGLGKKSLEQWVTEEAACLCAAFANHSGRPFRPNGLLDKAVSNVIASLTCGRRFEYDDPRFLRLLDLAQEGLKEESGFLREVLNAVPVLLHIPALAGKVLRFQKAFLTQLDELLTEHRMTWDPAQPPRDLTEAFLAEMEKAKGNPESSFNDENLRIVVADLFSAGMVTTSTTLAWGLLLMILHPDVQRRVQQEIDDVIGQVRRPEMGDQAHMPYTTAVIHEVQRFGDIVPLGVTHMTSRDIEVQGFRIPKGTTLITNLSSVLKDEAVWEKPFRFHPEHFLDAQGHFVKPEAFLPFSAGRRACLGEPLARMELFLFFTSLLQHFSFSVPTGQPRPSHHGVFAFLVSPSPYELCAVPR
Experimental: as §1

LS180 cells = test: Growth inhibition assay (crystal violet staining) in LS180 cells; format: cell-based; details: Homo sapiens, 48 h, read-out: IC20 for proliferation inhibition
Experimental: The human colon adenocarcinoma cell line LS180 (available at ATCC, Manassas, VA, USA) was used for induction experiments as a surrogate for the intestine being a major site of drug interactions and being an ideal model for investigating pregnane X receptor (PXR) and aryl hydrocarbon receptor (AhR) mediated induction. Cells were cultured under standard cell culture conditions with Dulbecco’s Modified Eagle’s Medium (DMEM) supplemented with 10% fetal calf serum, 2 mM glutamine, 100 U/mL penicillin, 100 µg/mL streptomycin sulphate, and 0.1 mM nonessential amino acids.
Growth inhibition assays in LS180 cells were conducted to determine suitable maximum concentrations for the induction assay without profound antiproliferative effects. Proliferation was quantified by crystal violet staining as described previously. […] Absorption was measured at 555 nm excitation. Proliferation was expressed as proliferation index, which was calculated as the absorption intensity of the test well in percentage points relative to zero proliferation (absorption of wells containing only medium set to 0%) and native proliferation (absorption intensity of untreated control cells set to 100%). […] Concentration-response curves and IC20 values were calculated by GraphPad Prism version 5.02 (GraphPad Software Inc., La Jolla, CA, USA) according to a sigmoid Emax model.

MDCKII = test: Growth inhibition assay in MDCKII cells; format: cell-based, canine; details: Canis lupus familiaris, MDCK-II; MDCKII parental cells
[5] = Growth inhibition assay in MDCKII-BCRP cells; format: cell-based, canine; details: dog
[6] = Growth inhibition assay in MDCKII-MDR1 cells; format: cell-based, canine; details: dog
AhR = target: T6, AhR (Homo sapiens, UniProt P35869); test: AhR reporter gene assay in AZ-AhR cells; format: cell-based; details: 24 h, luciferase reporter, read-out: EC50 activation of AhR activity
T6 construct: endogenous in cells; host or cells: AZ-AhR (HepG2)
T6 sequence (P35869 11-848): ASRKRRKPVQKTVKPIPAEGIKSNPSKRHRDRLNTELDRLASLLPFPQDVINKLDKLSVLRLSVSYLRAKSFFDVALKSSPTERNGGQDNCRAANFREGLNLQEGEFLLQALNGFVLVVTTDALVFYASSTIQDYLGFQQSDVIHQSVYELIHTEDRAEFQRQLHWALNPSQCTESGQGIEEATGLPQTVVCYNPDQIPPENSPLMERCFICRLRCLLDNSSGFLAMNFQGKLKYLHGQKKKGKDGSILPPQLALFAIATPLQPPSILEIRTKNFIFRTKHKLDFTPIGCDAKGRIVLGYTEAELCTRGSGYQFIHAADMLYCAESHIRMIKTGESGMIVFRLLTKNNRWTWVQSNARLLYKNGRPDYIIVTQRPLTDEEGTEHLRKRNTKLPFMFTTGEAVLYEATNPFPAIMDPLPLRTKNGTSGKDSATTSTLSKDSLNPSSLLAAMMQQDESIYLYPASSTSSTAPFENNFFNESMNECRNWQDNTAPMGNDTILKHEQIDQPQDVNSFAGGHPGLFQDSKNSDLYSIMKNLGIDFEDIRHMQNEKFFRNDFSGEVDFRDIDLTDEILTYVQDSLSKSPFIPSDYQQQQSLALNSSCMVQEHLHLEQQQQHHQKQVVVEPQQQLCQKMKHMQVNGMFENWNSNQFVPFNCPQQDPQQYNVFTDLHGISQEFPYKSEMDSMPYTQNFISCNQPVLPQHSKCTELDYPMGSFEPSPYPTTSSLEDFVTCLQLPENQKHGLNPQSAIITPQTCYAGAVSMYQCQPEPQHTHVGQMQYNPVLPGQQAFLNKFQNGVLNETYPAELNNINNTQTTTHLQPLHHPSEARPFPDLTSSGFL
Experimental: Human hepatoma HepG2 cells stably transfected with a construct containing several AhR binding sites upstream of a luciferase reporter gene were used for the AhR reporter gene assays as described previously.
In total, 60,000 AZ-AhR cells were seeded into each well of 96-well plates with clear bottom and clear lid for luminometry. […] The assay was performed with the Steady-Glo™ Luciferase Assay System according to the manufacturer’s instructions. Drug-induced increases of AhR receptor activity were normalised to activity of non-drug treated controls set to 1 (=100%).

CYP1A1 = test: Induction assay, mRNA by real-time RT-PCR in LS180 cells: CYP1A1; format: cell-based, human
Experimental: (§5) The human colon adenocarcinoma cell line LS180 (available at ATCC, Manassas, VA, USA) was used for induction experiments as a surrogate for the intestine being a major site of drug interactions and being an ideal model for investigating PXR and AhR mediated induction. Cells were cultured as described previously. For the induction experiments, LS180 cells were seeded in 75 cm^2 culturing flasks and incubated for three days. […] Rifampicin (20 µM) served as a positive control and culture medium with 0.02% DMSO as a negative control. For induction of CYP1A1 and CYP1A2, 5 nM TCDD was used as a positive control. All incubation solutions were adjusted to 0.02% DMSO. […]
(§6) RNA was isolated using the RNeasy Mini-Kit and cDNA was synthesised with the RevertAid™ H Minus First Strand cDNA Synthesis Kit according to the manufacturer’s instructions. mRNA expression was quantified by real-time RT-PCR with the LightCycler® 480 (Roche Applied Science, Mannheim, Germany) as described previously. […] Data were evaluated by calibrator-normalised relative quantification with efficiency correction using the LightCycler® 480 software version 1.5 (Roche Applied Science, Mannheim, Germany). The software calculated the relative amount of the target gene and the reference gene (G6PDH) based on the crossing points. Results were expressed as the target/reference ratio divided by the target/reference ratio of the calibrator. […]

CYP1A2 = test: Induction assay, mRNA by real-time RT-PCR in LS180 cells: CYP1A2; format: cell-based, human
Experimental: as §5, §6

ABCC3 = test: Induction assay, mRNA by real-time RT-PCR in LS180 cells: ABCC3; format: cell-based, human; details: 0.1-5 µM, four days
Experimental: as §5, §6

ABCG2 = test: Induction assay, mRNA by real-time RT-PCR in LS180 cells: ABCG2; format: cell-based, human; details: 0.1-5 µM, four days
Experimental: as §5, §6

ABCB1 = test: Induction assay, mRNA by real-time RT-PCR in LS180 cells: ABCB1; format: cell-based, human; details: four days, at higher concentrations
Experimental: as §5, §6

ABCC2 = test: Induction assay, mRNA by real-time RT-PCR in LS180 cells: ABCC2; format: cell-based, human; details: four days, at higher concentrations
Experimental: as §5, §6

SLCO1B1 = test: Induction assay, mRNA by real-time RT-PCR in LS180 cells: SLCO1B1; format: cell-based, human; details: four days, at higher concentrations
Experimental: as §5, §6

SLCO2B1 = test: Induction assay, mRNA by real-time RT-PCR in LS180 cells: SLCO2B1; format: cell-based, human; details: four days, at higher concentrations
Experimental: as §5, §6

UGT1A3 = test: Induction assay, mRNA by real-time RT-PCR in LS180 cells: UGT1A3; format: cell-based, human; details: four days, at higher concentrations
Experimental: as §5, §6

UGT2B7 = test: Induction assay, mRNA by real-time RT-PCR in LS180 cells: UGT2B7; format: cell-based, human; details: four days, at higher concentrations
Experimental: as §5, §6

NR1I2 = test: Induction assay, mRNA by real-time RT-PCR in LS180 cells: NR1I2; format: cell-based, human; details: four days, at higher concentrations
Experimental: as §5, §6

CYP2C19 [7] = test: Induction assay, mRNA by real-time RT-PCR in LS180 cells: CYP2C19; format: cell-based, human; details: 0.1-5 µM, four days
Experimental: as §5, §6

CYP3A4 [8] = test: Induction assay, mRNA by real-time RT-PCR in LS180 cells: CYP3A4; format: cell-based, human; details: 0.1-5 µM, four days
Experimental: as §5, §6

ABCC1 = test: Induction assay, mRNA by real-time RT-PCR in LS180 cells: ABCC1; format: cell-based, human; details: 0.1-5 µM, four days
Experimental: as §5, §6

P-gp = test: Western blot analysis of P-gp expression in LS180 cells; format: cell-based, human; details: four days
Experimental: The human colon adenocarcinoma cell line LS180 (available at ATCC, Manassas, VA, USA) was used for induction experiments as a surrogate for the intestine being a major site of drug interactions and being an ideal model for investigating PXR and AhR mediated induction. Cells were cultured as described previously. For the induction experiments, LS180 cells were seeded in 75 cm^2 culturing flasks and incubated for three days. […] Rifampicin (20 µM) served as a positive control and culture medium with 0.02% DMSO as a negative control. For induction of CYP1A1 and CYP1A2, 5 nM TCDD was used as a positive control. All incubation solutions were adjusted to 0.02% DMSO. After harvesting, cells were splitted for RNA and protein extraction.

[9] = Stock solution in DMSO (highest possible solution); format: physicochemical
OATP1B1 [10] = target: T3, OATP1B1; parameters: method as in PMID 23219525; details: HEK-OATP1B1 cells; read-out: IC50 OATP1B1 inhibition, control compound; cited from earlier work
OATP1B3 [11] = target: T4, OATP1B3; parameters: method as in PMID 23219525; details: HEK-OATP1B3 cells; read-out: IC50 OATP1B3 inhibition, control compound; cited from earlier work

T1 sequence (P33261 whole entry): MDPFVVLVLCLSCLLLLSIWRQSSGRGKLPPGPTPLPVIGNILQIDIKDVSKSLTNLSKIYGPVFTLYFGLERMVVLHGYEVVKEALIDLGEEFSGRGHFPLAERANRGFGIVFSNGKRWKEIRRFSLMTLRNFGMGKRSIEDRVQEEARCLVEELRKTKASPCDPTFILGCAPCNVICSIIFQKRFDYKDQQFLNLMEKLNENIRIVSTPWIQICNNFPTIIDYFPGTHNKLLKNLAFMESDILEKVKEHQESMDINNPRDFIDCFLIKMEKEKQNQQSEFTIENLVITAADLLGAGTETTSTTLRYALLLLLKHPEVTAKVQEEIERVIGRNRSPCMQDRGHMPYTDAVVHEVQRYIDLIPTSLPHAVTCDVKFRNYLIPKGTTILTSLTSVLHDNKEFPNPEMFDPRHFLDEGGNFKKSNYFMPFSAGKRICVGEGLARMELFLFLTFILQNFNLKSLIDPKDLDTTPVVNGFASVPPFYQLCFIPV

- IC50 (CYP2C19 [1]; control compound, read-out: IC50 CYP2C19 inhibition): 0.8 ± 0.2 µM
SMILES: COc1ccc2[nH]c([S+]([O-])Cc3ncc(C)c(OC)c3C)nc2c1 (stereo not drawn) [omeprazole, Omeprazole]

SMILES: COc1ccc2c3c([nH]c2c1)[C@H](C=C(C)C)N1C(=O)[C@@H]2CCCN2C(=O)[C@@H]1C3 [Fumitremorgin C]
- IC50 (BCRP): 0.7 ± 0.3 µM

- IC50 (OATP1B1 [2]): 76.5 ± 28.9 µM
- IC50 (OATP1B3 [3]): > 100 µM
- inhibition at 20 µM (CYP2C19 [1]; human, recombinant CYP2C19, probe CEC, at 20 µM): ~50%
- inhibition at 20 µM (CYP3A4 [4]): ~30%
- CYP2D6 inhibition (CYP2D6): not inhibited at all
- EC50 (AhR): 0.609 ± 0.282 µM
- mRNA expression of CYP1A1 (CYP1A1; 0.1-5 µM, four days): induced
- induction of CYP1A1 (mRNA) (CYP1A1; Figure 3): approximately 10 fold
- mRNA expression of CYP1A2 (CYP1A2; 0.1-5 µM, four days): induced
- induction of CYP1A2 (mRNA) (CYP1A2; Figure 3): approximately 10 fold
- mRNA expression of CYP2C19 (CYP2C19 [7]): no influence
- mRNA expression of CYP3A4 (CYP3A4 [8]): no influence
- stock solution, highest possible solution [9]: 10 mM
SMILES: CN1CCN(c2ccc3nc(-c4c(N)c5c(F)cccc5[nH]c4=O)[nH]c3c2)CC1 [Dovitinib]
- IC20 (LS180 cells): 4.9 ± 2.5 µM
- IC50 (MDCKII): 20 ± 2.9 µM
- IC50 at 48 h [5]: 21.4 ± 3.6 µM
- IC50 at 48 h [6]: 18.3 ± 4.1 µM
- mRNA expression of ABCC3 (ABCC3): induced
- mRNA expression of ABCG2 (ABCG2): induced
- mRNA expression of ABCB1 (ABCB1): reduced
- mRNA expression of ABCC2 (ABCC2): reduced
- mRNA expression of SLCO1B1 (SLCO1B1): reduced
- mRNA expression of SLCO2B1 (SLCO2B1): reduced
- mRNA expression of UGT1A3 (UGT1A3): reduced
- mRNA expression of UGT2B7 (UGT2B7): reduced
- mRNA expression of NR1I2 (NR1I2): reduced
- mRNA expression of ABCC1 (ABCC1): no influence
- P-gp protein expression (western blot) (P-gp; at 0.1 and 0.5 µM): small increase in P-gp expression
- P-gp protein expression (western blot) (P-gp; at higher dovitinib concentrations): suppression of P-gp protein expression

SMILES: CO[C@H]1/C=C/O[C@@]2(C)Oc3c(C)c(O)c4c(O)c(c(/C=N/N5CCN(C)CC5)c(O)c4c3C2=O)NC(=O)/C(C)=C\C=C\[C@H](C)[C@H](O)[C@@H](C)[C@@H](O)[C@@H](C)[C@H](OC(C)=O)[C@@H]1C [Rifampicin]
- IC50 (OATP1B1 [10]): 2.4 ± 0.9 µM
- IC50 (OATP1B3 [11]): 2.1 ± 1 µM
